Assay results published in PubChem BioAssay (NCI).
Values joined by “and” are separate entries in the source; they are usually repeats but may differ in a detail not shown here. Identical values can stand only once.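 Values below derive from 48-hour exposures of cells grown in 96-well plates, with endpoints linearly interpolated between the two concentrations bracketing the appropriate inhibition level. GI50: concentration for 50% inhibition of growth. TGI marks complete inhibition of growth.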

The compounds below were run on MALME-3M melanoma (assay: NCI tumour cell line growth inhibition, 48 h).

SMILES	TGI	GI50
CC(C)C(CCl)NC(=O)c1cccc(C(=O)N[C@H](CCl)C(C)C)n1 (stereo in doubt)	> 100 µM	–
CCC(=O)CC(=O)CCC(=O)Nc1cc(C)ccc1C	> 100 µM	–
C(=NCCN1CCOCC1)=NC1CCCCC1	> 100 µM	–
COC(=O)COc1ccccc1/C=C1\N=C(c2ccccc2)N(c2cc(C(F)(F)F)ccc2Cl)C1=O	92.5 µM	27.5 µM
CC(=O)OC1COC(Oc2c(C)c3c4c(c2O)[C@@H](C)CC[C@@H]4[C@@H](C)C[C@H]3C=C(C)C)C(O)C1OC(C)=O (some centres undefined)	32.3 µM	15.2 µM
CO/N=C(/C)c1cccc(Nc2cc(-n3nnc4ccccc43)nc3ccccc23)c1	58 µM	16.1 µM
CN1CC(=O)N2Cc3ccccc3-n3cccc3C2C1 (centres undefined)	> 100 µM	–
Cc1ccc(SC2c3ccc(C)cc3Oc3nc(N)c(C#N)c(N)c32)cc1 (centres undefined)	3.6 µM	1.77 µM
CC/C=C\C[C@H](O)C/C=C1/C(=O)C(Cl)=C[C@@H]1C/C=C\CCCC(=O)OC	1.23 µM	0.451 µM

These compounds were tested on NCI-H226 lung (assay: NCI tumour cell line growth inhibition, 48 h).

SMILES	TGI	GI50
Clc1ccc2c(c1)[nH]c1c2nc2ccccn21	44.7 µM and 63.9 µM	–
CCOC(=O)c1cnc2c(ccc3[nH]n(C)nc32)c1=O	> 100 µM	–
NC(=S)N/N=C(\CC1OC(=O)c2ccccc21)c1ccc(Cl)cc1 (centres undefined)	53.3 µM	–
CC1(C)COC(C2(C)C(=O)C=C(c3ccccc3)c3ccccc32)=N1 (centres undefined)	> 100 µM	–
O=C(Nc1ccn(CCO)c(=O)n1)c1ccccc1	> 100 µM	–
C#CCOc1cccc(-c2ncc3cc(NC(=O)CCl)ccc3n2)c1	8.17 µM	2.6 µM
O=CCC1CCCCC1	> 100 µM	–
CCC12CCCN(Cc3ccccc3)C1c1c(n(C)c3ccccc13)CC2 (centres undefined)	> 253 µM	–
CSc1nc(=O)n(CCC#N)nc1SC	84.2 µM	–
Cc1cc(Nc2ccc(NC(=O)c3ccc(Nc4ccnc5ccccc45)cc3)cc2)nc(N)n1	5 µM	2.42 µM
CNCc1ccccc1-c1csc([C@@H](C)Nc2nc(C)nc3cc(OC)c(OC)cc23)c1	32.7 µM	13.6 µM
Nc1nc(Cl)cc(NCCCCCCCCNc2cc(Cl)nc(N)n2)n1	48.5 µM	–
CC(C)N(C(=O)C12C3C4C1C1C4(C#N)C3C12C#N)C(C)C (centres undefined)	> 100 µM	–
O=C1CCC(Cl)=CC2CCCN12 (centres undefined)	> 100 µM	–
O=C(Nc1ccc2ncccc2c1)Nc1ccc2ncccc2c1	> 100 µM	–
CC(C)C(CCl)NC(=O)c1cccc(C(=O)N[C@H](CCl)C(C)C)n1 (stereo in doubt)	> 100 µM	–
C(=NCCN1CCOCC1)=NC1CCCCC1	> 100 µM	–
NC(N)=N/N=C/c1c(-c2ccsc2)nc2sccn12	31.2 µM	16.4 µM
COC(=O)COc1ccccc1/C=C1\N=C(c2ccccc2)N(c2cc(C(F)(F)F)ccc2Cl)C1=O	> 100 µM	66.6 µM
CC(=O)OC1COC(Oc2c(C)c3c4c(c2O)[C@@H](C)CC[C@@H]4[C@@H](C)C[C@H]3C=C(C)C)C(O)C1OC(C)=O (some centres undefined)	31.4 µM	14.2 µM
CO/N=C(/C)c1cccc(Nc2cc(-n3nnc4ccccc43)nc3ccccc23)c1	> 100 µM	27.3 µM
NC(=S)N/N=C/C(=O)O	> 100 µM	> 100 µM
Cc1ccc(SC2c3ccc(C)cc3Oc3nc(N)c(C#N)c(N)c32)cc1 (centres undefined)	4 µM	1.77 µM
CC/C=C\C[C@H](O)C/C=C1/C(=O)C(Cl)=C[C@@H]1C/C=C\CCCC(=O)OC	2.26 µM	0.537 µM

The compounds below were run on NCI-H23 lung (assay: NCI tumour cell line growth inhibition, 48 h).

SMILES	TGI	GI50
Clc1ccc2c(c1)[nH]c1c2nc2ccccn21	72.3 µM and 44.9 µM	–
CCOC(=O)c1cnc2c(ccc3[nH]n(C)nc32)c1=O	> 100 µM	–
NC(=S)N/N=C(\CC1OC(=O)c2ccccc21)c1ccc(Cl)cc1 (centres undefined)	57.7 µM	–
COc1ccc2occ(CCC(=O)O)c2c1	> 100 µM	–
CC1(C)COC(C2(C)C(=O)C=C(c3ccccc3)c3ccccc32)=N1 (centres undefined)	> 100 µM	–
C#CCOc1cccc(-c2ncc3cc(NC(=O)CCl)ccc3n2)c1	4.71 µM	1.87 µM
O=CCC1CCCCC1	> 100 µM	–
CCC12CCCN(Cc3ccccc3)C1c1c(n(C)c3ccccc13)CC2 (centres undefined)	> 253 µM	–
CSc1nc(=O)n(CCC#N)nc1SC	> 100 µM	–
COC(=O)C1c2cc3c(cc2C(OC2OC(C)C(OC)C(C)(OC)C2OC)CC1(C)O)C(=O)c1c(O)cc2c(c1C3=O)OC1OC2(C)C(O)C([N+](C)(C)[O-])C1O (centres undefined)	0.718 µM	–
CNCc1ccccc1-c1csc([C@@H](C)Nc2nc(C)nc3cc(OC)c(OC)cc23)c1	15.5 µM	2.83 µM
Nc1nc(Cl)cc(NCCCCCCCCNc2cc(Cl)nc(N)n2)n1	> 100 µM	–
CC(C)N(C(=O)C12C3C4C1C1C4(C#N)C3C12C#N)C(C)C (centres undefined)	> 100 µM	–
O=C1CCC(Cl)=CC2CCCN12 (centres undefined)	> 100 µM	–
O=C(Nc1ccc2ncccc2c1)Nc1ccc2ncccc2c1	> 100 µM	–
CC(C)C(CCl)NC(=O)c1cccc(C(=O)N[C@H](CCl)C(C)C)n1 (stereo in doubt)	> 100 µM	–
CCC(=O)CC(=O)CCC(=O)Nc1cc(C)ccc1C	> 100 µM	–
C(=NCCN1CCOCC1)=NC1CCCCC1	> 100 µM	–
NC(N)=N/N=C/c1c(-c2ccsc2)nc2sccn12	26.4 µM	13.5 µM
COC(=O)COc1ccccc1/C=C1\N=C(c2ccccc2)N(c2cc(C(F)(F)F)ccc2Cl)C1=O	> 100 µM	> 100 µM
CC(=O)OC1COC(Oc2c(C)c3c4c(c2O)[C@@H](C)CC[C@@H]4[C@@H](C)C[C@H]3C=C(C)C)C(O)C1OC(C)=O (some centres undefined)	18.6 µM	7.49 µM
CO/N=C(/C)c1cccc(Nc2cc(-n3nnc4ccccc43)nc3ccccc23)c1	> 100 µM	33.6 µM
CN1CC(=O)N2Cc3ccccc3-n3cccc3C2C1 (centres undefined)	> 100 µM	–
NC(=S)N/N=C/C(=O)O	> 100 µM	> 100 µM
CC/C=C\C[C@H](O)C/C=C1/C(=O)C(Cl)=C[C@@H]1C/C=C\CCCC(=O)OC	1.97 µM	0.523 µM

The compounds below were run on OVCAR-3 ovarian (assay: NCI tumour cell line growth inhibition, 48 h).

SMILES	TGI
CCOC(=O)c1cnc2c(ccc3[nH]n(C)nc32)c1=O	> 100 µM
NC(=S)N/N=C(\CC1OC(=O)c2ccccc21)c1ccc(Cl)cc1 (centres undefined)	> 100 µM
COc1ccc2occ(CCC(=O)O)c2c1	> 100 µM
